Experimental data published in patent publication US11660293B2, “Substituted 2-azabicyclo[3.1.1]heptane and 2-azabicyclo[3.2.1]octane derivatives as orexin receptor antagonists” (Chronos Therapeutics Limited, priority 2017, dated 2023).

Tests used:
[1] = target: human Orexin type 1 receptors (Homo sapiens (Human), UniProt O43613); experiment: Scintillation Proximity Assay (SPA) binding assay, [3H]SB-674042 displacement, CHO-hOX1 membranes
Method: Scintillation Proximity Assay (SPA) Binding Assays CHO cells stably transfected with human Orexin type 1 receptors (CHO-hOX1) or HEK-293 cells transiently transfected with human Orexin type 2 receptors (HEK-hOX2) were collected after 16 h induction with 5 mM sodium butyrate. […] The binding was performed in a final volume of 200 μl. 100 μl of hOX1 or hOX2 beads-membranes suspension were added to 100 μl of [^3H]SB-674042 or [^3H]EMPA solutions (radioligand concentration 2 nM final in the assay), into the 96-well Isoplates containing the 2 μl/well of compounds to be tested. Nonspecific binding was measured in the presence of 1 μM Almorexant. Assay plates were then incubated at room temperature for 3 h before being counted in a Microbeta scintillation counter (PerkinElmer). Data were analysed by non-linear regression analysis using XLfit Software.

[2] = target: human Orexin type 2 receptors (Homo sapiens (Human), UniProt O43614); experiment: Scintillation Proximity Assay (SPA) binding assay, [3H]EMPA displacement, HEK-hOX2 membranes
Sequence of human Orexin type 2 receptors (O43614 whole entry): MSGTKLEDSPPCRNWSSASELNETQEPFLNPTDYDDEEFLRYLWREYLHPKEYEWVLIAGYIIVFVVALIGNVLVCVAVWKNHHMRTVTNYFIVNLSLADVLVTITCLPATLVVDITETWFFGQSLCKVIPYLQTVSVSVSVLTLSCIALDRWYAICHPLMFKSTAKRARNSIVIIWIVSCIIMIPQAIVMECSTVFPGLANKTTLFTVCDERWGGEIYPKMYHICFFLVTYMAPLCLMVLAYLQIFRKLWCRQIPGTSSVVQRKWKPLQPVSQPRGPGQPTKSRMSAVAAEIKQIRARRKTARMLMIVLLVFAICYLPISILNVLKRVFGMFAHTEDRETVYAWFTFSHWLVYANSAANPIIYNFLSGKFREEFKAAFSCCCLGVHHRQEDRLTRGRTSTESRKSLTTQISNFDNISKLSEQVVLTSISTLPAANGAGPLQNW
Method: Scintillation Proximity Assay (SPA) Binding Assays
CHO cells stably transfected with human Orexin type 1 receptors (CHO-hOX1) or HEK-293 cells transiently transfected with human Orexin type 2 receptors (HEK-hOX2) were collected after 16 h induction with 5 mM sodium butyrate. The cell pellets were re-suspended, homogenized in 15 mM Tris/HCl pH=7.5, 1 mM EGTA, 0.3 mM EDTA, 2 mM MgCl2, protease inhibitors and centrifuged at 40,000 g (20 min, 4° C.). After re-suspension, homogenization and centrifugation as above, the final pellets were re-suspended in 75 mM Tris/HCl pH=7.5, 1 mM EGTA, 0.3 mM EDTA, 12.5 mM MgCl2, 250 mM Sucrose, protease inhibitors, divided into aliquots and frozen down at −80° C.
CHO-hOX1 cell membranes (6 μg ml^−1) or HEK-hOX2 membranes (8 μg ml^−1) were pre-coupled with 1.0 mg ml^−1 of Wheatgerm Agglutinin-coated Yttrium Silicate (YSi-WGA) SPA beads (Perkin Elmer) in buffer containing 25 mM HEPES pH=7.4, 1 mM CaCl2), 5 mM MgCl2, 0.01% (w/v) BSA, 0.02% (w/v) Pluronic F-127 by shaking at room temperature for 2.5-3 h.
The binding was performed in a final volume of 200 μl. 100 μl of hOX1 or hOX2 beads-membranes suspension were added to 100 μl of [^3H]SB-674042 or [^3H]EMPA solutions (radioligand concentration 2 nM final in the assay), into the 96-well Isoplates containing the 2 μl/well of compounds to be tested. Nonspecific binding was measured in the presence of 1 μM Almorexant. Assay plates were then incubated at room temperature for 3 h before being counted in a Microbeta scintillation counter (PerkinElmer).
Data were analysed by non-linear regression analysis using XLfit Software.

Sequence of human Orexin type 1 receptors (O43613 whole entry): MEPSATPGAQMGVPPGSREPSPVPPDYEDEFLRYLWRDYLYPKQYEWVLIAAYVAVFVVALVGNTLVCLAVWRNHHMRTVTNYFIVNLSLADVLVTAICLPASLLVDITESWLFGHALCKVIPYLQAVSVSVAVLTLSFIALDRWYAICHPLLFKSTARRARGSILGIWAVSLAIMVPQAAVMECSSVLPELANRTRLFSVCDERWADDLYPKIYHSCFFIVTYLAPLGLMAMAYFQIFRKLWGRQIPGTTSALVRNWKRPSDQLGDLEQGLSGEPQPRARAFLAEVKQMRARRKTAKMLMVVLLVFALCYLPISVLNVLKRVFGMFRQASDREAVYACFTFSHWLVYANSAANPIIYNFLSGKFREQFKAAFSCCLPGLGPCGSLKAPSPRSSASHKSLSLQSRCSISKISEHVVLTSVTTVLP

Compound: C[C@@H]1C2CC(C2)N(C(=O)c2cc(F)ccc2-n2nccn2)C1CNc1ccc(C(F)(F)F)cn1 (single isomer, unassigned) [Example 192, N-({(3R,4S) or (3S,4R)2-[5-fluoro-2-(2H-1,2,3-triazol-2-yl)benzoyl]-4-methyl-2-azabicyclo[3.1.1]heptan-3-yl}methyl)-5-(trifluoromethyl)pyridin-2-amine]
- OX1 pKi (SPA binding) ([1]; Table 2, [3H]SB-674042 2 nM): 8.13
- OX2 pKi (SPA binding) ([2]; Table 2, [3H]EMPA 2 nM): 5.19

Compound: Cc1nc(C(=O)N2C3CC(C3)[C@@H](C)C2COc2ccc(F)cc2)c(-n2nccn2)s1 (stereo partly drawn) [Example 140, cis-3-[(4-flurophenoxy)methyl]-4-methyl-2-[2-methyl-5-(2H-1,2,3-triazol-2-yl)-1,3-thiazole-4-carbonyl]-2-azabicyclo[3.1.1]heptane]
- OX1 pKi (SPA binding) ([1]; Table 2, [3H]SB-674042 2 nM): 7.49
- OX2 pKi (SPA binding) ([2]; Table 2, [3H]EMPA 2 nM): 6.22

Compound: Cc1nc(C(=O)N2C3CC(C3)[C@H](C)C2COc2ccc(F)cc2)c(-c2ccccn2)s1 (mixture of isomers) [Example 123, trans-3-[(4-fluorophenoxy)methyl]-4-methyl-2-[2-methyl-5-(pyridin-2-yl)-1,3-thiazole-4-carbonyl]-2-azabicyclo[3.1.1]heptane]
- OX1 pKi (SPA binding) ([1]; Table 2, [3H]SB-674042 2 nM): 8.02
- OX2 pKi (SPA binding) ([2]; Table 2, [3H]EMPA 2 nM): 6.12

Compound: Cc1ccc(-n2nccn2)c(C(=O)N2C3CC(C3)[C@@H](C)C2CNc2ncc(C(F)(F)F)cn2)n1 (mixture of isomers) [Example 193, cis-N-({4-methyl-2-[6-methyl-3-(2H-1,2,3-triazol-2-yl)pyridine-2-carbonyl]-2-azabicyclo[3.1.1]heptan-3-yl}methyl)-5-(trifluoromethyl)pyrimidin-2-amine]
- OX1 pKi (SPA binding) ([1]; Table 2, [3H]SB-674042 2 nM): 7.57
- OX2 pKi (SPA binding) ([2]; Table 2, [3H]EMPA 2 nM): 4.64

Compound: C[C@@H]1C2CC(C2)N(C(=O)c2ccc(F)cc2-n2nccn2)C1CNc1cnc(C(F)(F)F)cn1 (some centres unmarked) [Example 252]
- OX1 pKi (SPA binding) ([1]; Table 2, [3H]SB-674042 2 nM): 7.19
- OX2 pKi (SPA binding) ([2]; Table 2, [3H]EMPA 2 nM): 4.95

Compound: Cc1nc(C(=O)N2C3CC(C3)[C@@H](C)C2COc2ccc(F)cc2)c(-c2ncccn2)s1 (stereo partly drawn) [Example 94, cis-3-[(4-fluorophenoxy)methyl]-4-methyl-2-[2-methyl-5-(pyrimidin-2-yl)-1,3-thiazole-4-carbonyl]-2-azabicyclo[3.1.1]heptane]
- OX1 pKi (SPA binding) ([1]; Table 1, [3H]SB-674042 2 nM): 8.04
- OX2 pKi (SPA binding) ([2]; Table 1, [3H]EMPA 2 nM): 6.35

Compound: Cc1ccc(-n2nccn2)c(C(=O)N2C3CC(C3)[C@@H](C)C2CNc2cncc(C(F)(F)F)n2)n1 (mixture of isomers) [Example 217, cis-N-({4-methyl-2-[6-methyl-3-(2H-1,2,3-triazol-2-yl)pyridine-2-carbonyl]-2-azabicyclo[3.1.1]heptan-3-yl}methyl)-6-(trifluoromethyl)pyrazin-2-amine]
- OX1 pKi (SPA binding) ([1]; Table 2, [3H]SB-674042 2 nM): 6.85
- OX2 pKi (SPA binding) ([2]; Table 2, [3H]EMPA 2 nM): 5.29

Compound: C[C@@H]1C2CC(C2)N(C(=O)c2cc(F)ccc2-n2nccn2)C1CNc1nc2cccnc2s1 (mixture of isomers) [Example 228, cis-N-({2-[5-fluoro-2-(2H-1,2,3-triazol-2-yl)benzoyl]-4-methyl-2-azabicyclo[3.1.1]heptan-3-yl}methyl)-[1,3]thiazolo[5,4-b]pyridin-2-amine]
- OX1 pKi (SPA binding) ([1]; Table 2, [3H]SB-674042 2 nM): 7.94
- OX2 pKi (SPA binding) ([2]; Table 2, [3H]EMPA 2 nM): 5.04

Compound: Cc1ccc(-n2nccn2)c(C(=O)N2C3CC(C3)[C@H](C)C2COc2nc3ccc(F)cc3s2)n1 (stereo partly drawn) [Example 110, trans-6-fluoro-2-({4-methyl-2-[6-methyl-3-(2H-1,2,3-triazol-2-yl)pyridine-2-carbonyl]-2-azabicyclo[3.1.1]heptan-3-yl}methoxy)-1,3-benzothiazole]
- OX1 pKi (SPA binding) ([1]; Table 1, [3H]SB-674042 2 nM): 7
- OX2 pKi (SPA binding) ([2]; Table 1, [3H]EMPA 2 nM): 6.06

Compound: Cc1ccc(OCC2[C@H](C)C3CC(C3)N2C(=O)c2nc(C)ccc2-n2nccn2)nc1 (mixture of isomers) [Example 100, cis-4-methyl-2-[6-methyl-3-(2H-1,2,3-triazol-2-yl)pyridine-2-carbonyl]-3-{[(5-methylpyridin-2-yl)oxy]methyl}-2-azabicyclo[3.1.1]heptane]
- OX1 pKi (SPA binding) ([1]; Table 1, [3H]SB-674042 2 nM): 7.03
- OX2 pKi (SPA binding) ([2]; Table 1, [3H]EMPA 2 nM): 5.96

Compound: Cc1ccc(-n2nccn2)c(C(=O)N2C3CC(C3)[C@@H](C)C2CNc2nc3ccccc3o2)n1 (stereo in doubt) [Example 225, cis-N-({4-methyl-2-[6-methyl-3-(2H-1,2,3-triazol-2-yl)pyridine-2-carbonyl]-2-azabicyclo[3.1.1]heptan-3-yl}methyl)-1,3-benzoxazol-2-amine]
- OX1 pKi (SPA binding) ([1]; Table 2, [3H]SB-674042 2 nM): 8.32
- OX2 pKi (SPA binding) ([2]; Table 2, [3H]EMPA 2 nM): 5.22

Compound: Cc1nc(C(=O)N2C(COc3ncc4ccn(C)c4n3)CC3CC2C3)c(-c2ccccc2)s1 (centres unmarked) [Example 57]
- OX1 pKi (SPA binding) ([1]; Table 1, [3H]SB-674042 2 nM): 7.35
- OX2 pKi (SPA binding) ([2]; Table 1, [3H]EMPA 2 nM): 6.86

Compound: Cc1ccc(-n2nccn2)c(C(=O)N2C3CC(C3)[C@@H](C)C2CNc2cnc3cc(F)c(F)cc3n2)n1 (mixture of isomers) [Example 201, cis-6.7-difluoro-N-({4-methyl-2-[6-methyl-3-(2H-1,2,3-triazol-2-yl)pyridine-2-carbonyl]-2-azabicyclo[3.1.1]heptan-3-yl}methyl)quinoxalin-2-amine]
- OX1 pKi (SPA binding) ([1]; Table 2, [3H]SB-674042 2 nM): 7.97
- OX2 pKi (SPA binding) ([2]; Table 2, [3H]EMPA 2 nM): 6.55

Compound: Cc1ccc(-n2nccn2)c(C(=O)N2C3CC(C3)[C@@H](C)C2CNc2nc3ccc(F)cc3o2)n1 (single isomer, unassigned) [Example 219, 6-fluoro-N-{[(3S,4R) or (3R,4S)-4-methyl-2-[6-methyl-3-(2H-1,2,3-triazol-2-yl)pyridine-2-carbonyl]-2-azabicyclo[3.1.1]heptan-3-yl]methyl}-1,3-benzoxazol-2-amine]
- OX1 pKi (SPA binding) ([1]; Table 2, [3H]SB-674042 2 nM): 8.71
- OX2 pKi (SPA binding) ([2]; Table 2, [3H]EMPA 2 nM): 5.79

Compound: Cc1ccc(-n2nccn2)c(C(=O)N2C3CC(C3)[C@H](C)C2COc2ccc(F)c(F)c2)n1 (mixture of isomers) [Example 111, trans-3-[(3,4-difluorophenoxy)methyl]-4-methyl-2-[6-methyl-3-(2H-1,2,3-triazol-2-yl)pyridine-2-carbonyl]-2-azabicyclo[3.1.1]heptane]
- OX1 pKi (SPA binding) ([1]; Table 1, [3H]SB-674042 2 nM): 7.53
- OX2 pKi (SPA binding) ([2]; Table 1, [3H]EMPA 2 nM): 5.99

Compound: Cc1nc(C(=O)N2C(COc3ccccc3F)CC3CC2C3)c(-c2ccccc2)s1 (centres unmarked) [Example 45]
- OX1 pKi (SPA binding) ([1]; Table 1, [3H]SB-674042 2 nM): 7.22
- OX2 pKi (SPA binding) ([2]; Table 1, [3H]EMPA 2 nM): 7.12

Compound: C[C@@H]1C2CC(C2)N(C(=O)c2cc(C#N)ccc2-n2nccn2)C1CNc1cnc(C(F)(F)F)cn1 (mixture of isomers) [Example 237, cis-3-[4-methyl-3-({[5-(trifluoromethyl)pyrazin-2-yl]amino}methyl)-2-azabicyclo[3.1.1]heptane-2-carbonyl]-4-(2H-1,2,3-triazol-2-yl)benzonitrile]
- OX1 pKi (SPA binding) ([1]; Table 2, [3H]SB-674042 2 nM): 7.33
- OX2 pKi (SPA binding) ([2]; Table 2, [3H]EMPA 2 nM): 4.82

Compound: Cc1ccc(-c2ncccn2)c(C(=O)N2C3CC(C3)[C@@H](C)C2CNc2cnc(C(F)(F)F)cn2)n1 (mixture of isomers) [Example 248, cis-N-({4-methyl-2-[6-methyl-3-(pyrimidin-2-yl)pyridine-2-carbonyl]-2-azabicyclo[3.1.1]heptan-3-yl}methyl)-5-(trifluoromethyl)pyrazin-2-amine]
- OX1 pKi (SPA binding) ([1]; Table 2, [3H]SB-674042 2 nM): 7.76
- OX2 pKi (SPA binding) ([2]; Table 2, [3H]EMPA 2 nM): 4.58

Compound: Cc1nc(C(=O)N2C3CC(C3)[C@@H](C)[C@@H]2COc2cc3ccccc3cn2)c(-c2ccccc2)s1 (single isomer, unassigned) [Example 86, 3-{[(3R,4R or 3S,4S)-4-methyl-2-(2-methyl-5-phenyl-1,3-thiazole-4-carbonyl)-2-azabicyclo[3.1.1]heptan-3-yl]methoxy}isoquinoline]
- Ki ([1]; Table 1, [3H]SB-674042 2 nM, read-out: OX1 pKi (SPA binding) (converted)): 89.1 nM
- Ki ([2]; Table 1, [3H]EMPA 2 nM, read-out: OX2 pKi (SPA binding) (converted)): 1290 nM
